Measured values taken from patent US20240287138A1, “CYCLIC PEPTIDES FOR INHIBITING TNF RECEPTOR 1 ACTIVITY” (Merck Sharp & Dohme LLC, priority 2023, published 2024).
pIC50, pKd: −log10 of the molar value. Numbered stars: 1 amine (or outer) side, 2 acyl side, 3 side chain; on linkers, the order of the positions; unused ones are H or OH. Bridge positions count the residues as written; N and C are the ends. Square brackets hold non-standard residues; d marks the D form. Peptide text beside a SMILES is read from it. * marks the point of attachment. Trp(βS-Me,7-OMe) = COc1cccc2c([C@H](C)[C@H](N)C(=O)O)c[nH]c12; X56 = Cc1cccc2c([C@H](C)[C@H](N[*:1])C(=O)[*:2])c[nH]c12; Trp(1-CH2COOH) = N[C@@H](Cc1cn(CC(=O)O)c2ccccc12)C(=O)O; Trp(7-CN) = N#Cc1cccc2c(C[C@H](N)C(=O)O)c[nH]c12; Trp(7-Cl) = N[C@@H](Cc1c[nH]c2c(Cl)cccc12)C(=O)O; Ala(pyrimidin-5-yl) = N[C@@H](Cc1cncnc1)C(=O)O; Phe(3-COOH) = N[C@@H](Cc1cccc(C(=O)O)c1)C(=O)O; Phe(4-COOH) = N[C@@H](Cc1ccc(C(=O)O)cc1)C(=O)O; Trp(7-aza) = N[C@@H](Cc1c[nH]c2ncccc12)C(=O)O; X46 = Nc1ncc(C[C@H](N[*:1])C(=O)[*:2])cn1; Pip(5R-OH) = O=C(O)[C@@H]1CC[C@@H](O)CN1; X1 = O=C([C@@H]1CC[C@H](N[*:1])C1)[*:2]; Dap(CONH2) = NC(=O)NC[C@H](N)C(=O)O; Val(3-OH) = CC(C)(O)[C@H](N)C(=O)O; Pip(4-aza) = O=C(O)[C@@H]1CNCCN1; 4Pal = N[C@@H](Cc1ccncc1)C(=O)O; NMeE = CN[C@@H](CCC(=O)O)C(=O)O; dHyp = O=C(O)[C@H]1C[C@H](O)CN1; Pip = O=C(O)[C@@H]1CCCCN1; αMeS = C[C@](N)(CO)C(=O)O; Carboxymethyl = O=C(O)C*; Nle = CCCC[C@H](N)C(=O)O; Sar = CNCC(=O)O

Experiments:
[1] = target: T1, human soluble TNFR1 (sTNFR1) (Homo sapiens, UniProt P19438); assay: Human sTNFR1-peptide displacement assay (LanthaScreen Eu TR-FRET binding assay)
T1 construct: made in house; host or cells: Sf21 (baculovirus)
T1 sequence (P19438 with tags, fused parts or gaps): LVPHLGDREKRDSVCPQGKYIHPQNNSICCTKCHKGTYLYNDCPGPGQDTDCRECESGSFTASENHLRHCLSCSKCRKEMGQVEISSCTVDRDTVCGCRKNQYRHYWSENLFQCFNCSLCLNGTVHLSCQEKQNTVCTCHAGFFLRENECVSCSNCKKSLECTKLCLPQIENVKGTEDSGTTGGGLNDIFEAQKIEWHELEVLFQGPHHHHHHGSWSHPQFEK
Outline: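 Readout is the 665/615 nm TR-FRET ratio (Eu anti-His donor, streptavidin-Alexa647 acceptor), normalized to DMSO and saturating displacer, fit by Morrison-based five-parameter logistic for Kd^app. His-tagged sTNFR1 (1-211) prebound to 100 nM biotinylated peptide SEQ ID NO.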

[2] = target: T2, TNFα-induced NF-κB signal transduction pathway (TNFR1 signaling) in THP-1 cells (Homo sapiens, UniProt P19438); assay: THP-1 Lucia NF-κB reporter cell assay, inhibition of TNFα-induced NF-κB signaling; format: cell-based; details: THP-1 NF-κB Lucia reporter cells, 10 ng/mL TNFα, 16-18 h, secreted luciferase; read-out: THP-1 IC50
T2 sequence (P19438 30-455): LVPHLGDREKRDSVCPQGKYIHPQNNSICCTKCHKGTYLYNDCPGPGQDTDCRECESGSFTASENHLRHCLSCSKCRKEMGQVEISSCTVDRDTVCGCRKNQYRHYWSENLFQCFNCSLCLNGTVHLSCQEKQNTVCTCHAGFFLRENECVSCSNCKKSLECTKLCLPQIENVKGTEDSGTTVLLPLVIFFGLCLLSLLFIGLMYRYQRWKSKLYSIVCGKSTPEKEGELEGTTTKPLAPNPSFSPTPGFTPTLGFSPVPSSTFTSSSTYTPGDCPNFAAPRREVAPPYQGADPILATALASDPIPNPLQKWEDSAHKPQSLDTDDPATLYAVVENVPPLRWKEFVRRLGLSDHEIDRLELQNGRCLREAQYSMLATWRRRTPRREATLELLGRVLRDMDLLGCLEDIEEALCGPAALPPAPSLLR
Outline: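 Inhibition of TNFR1-driven NF-κB activation was measured as luminescence of secreted reporter luciferase following overnight (16-18 h) stimulation with 10 ng/mL TNFα.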

Row | Compound | pKd [1] | pIC50 [2] | pIC50 [1]
1 | CCCC[C@@H]1NC(=O)[C@@H]2CC[C@@H](C2)NC(=O)[C@H]([C@@H](C)c2c[nH]c3c(OC)cccc23)NC(=O)CN(C)C(=O)[C@H](Cc2ccc(OCC(=O)O)cc2)NC(=O)[C@H](Cc2cnc(N)nc2)NC(=O)[C@](C)(CO)NC(=O)[C@H](Cc2c[nH]c3c(C#N)cccc23)NC(=O)[C@H](Cc2ccc(OCC(=O)O)cc2)NC(=O)[C@H](CC(N)=O)NC(=O)[C@H]2C[C@H](O)CN2C(=O)[C@H](Cc2cn(CC(=O)O)c3ccccc23)NC(=O)[C@@H]2CC[C@@H](O)CN2C(=O)[C@H](Cc2ccncc2)NC1=O [SEQ ID NO. 6] (cyclo([4Pal][Pip(5R-OH)][Trp(1-CH2COOH)][dHyp]NY(Carboxymethyl)[Trp(7-CN)][αMeS][X46]Y(Carboxymethyl)[Sar][Trp(βS-Me,7-OMe)][X1][Nle])) | 10.10 | 9.10 | 
2 | CCCC[C@@H]1NC(=O)[C@@H]2CC[C@@H](C2)NC(=O)[C@H]([C@@H](C)c2c[nH]c3c(OC)cccc23)NC(=O)CN(C)C(=O)[C@H](Cc2c[nH]cn2)NC(=O)[C@H](Cc2ccc(C(=O)O)cc2)NC(=O)[C@](C)(CO)NC(=O)[C@H](Cc2c[nH]c3c(Cl)cccc23)NC(=O)[C@H](Cc2ccncc2)NC(=O)[C@H](CC(N)=O)NC(=O)[C@H](CCC(=O)O)N(C)C(=O)[C@H](Cc2c[nH]c3ccccc23)NC(=O)[C@@H]2CNCCN2C(=O)[C@H](Cc2ccncc2)NC1=O [SEQ ID NO. 178] (cyclo([4Pal][Trp(7-Cl)][αMeS][Phe(4-COOH)]H[Sar][Trp(βS-Me,7-OMe)][X1][Nle][4Pal][Pip(4-aza)]W[NMeE]N)) | 9.54 | 8.48 | 
3 | CCCC[C@@H]1NC(=O)CSC[C@@H](C(N)=O)NC(=O)[C@H]([C@@H](C)c2c[nH]c3c(OC)cccc23)NC(=O)CN(C)C(=O)[C@H](Cc2ccc(O)cc2)NC(=O)[C@H](Cc2ccc(C(=O)O)cc2)NC(=O)[C@](C)(CO)NC(=O)[C@H](Cc2c[nH]c3c(Cl)cccc23)NC(=O)[C@H](Cc2ccncc2)NC(=O)[C@H](CC(N)=O)NC(=O)[C@H](CCC(=O)O)N(C)C(=O)[C@H](Cc2c[nH]c3ncccc23)NC(=O)[C@H](C(C)(C)O)NC(=O)[C@H](Cc2cncnc2)NC1=O [SEQ ID NO. 177] ({CH2CO}-[Nle][Ala(pyrimidin-5-yl)][Val(3-OH)][Trp(7-aza)][NMeE]N[4Pal][Trp(7-Cl)][αMeS][Phe(4-COOH)]Y[Sar][Trp(βS-Me,7-OMe)]C-NH2; thioether N-14) | 9.27 | 8.48 | 
4 | CCCC[C@@H]1NC(=O)[C@@H]2CC[C@@H](C2)NC(=O)[C@H]([C@@H](C)c2c[nH]c3c(OC)cccc23)NC(=O)CN(C)C(=O)[C@H](Cc2ccc(O)cc2)NC(=O)[C@H](Cc2ccc(C(=O)O)cc2)NC(=O)[C@](C)(CO)NC(=O)[C@H](Cc2c[nH]c3c(Cl)cccc23)NC(=O)[C@H](Cc2ccncc2)NC(=O)[C@H](CNC(N)=O)NC(=O)[C@H](CCC(=O)O)N(C)C(=O)[C@H](Cc2c[nH]c3ccccc23)NC(=O)[C@@H]2CNCCN2C(=O)[C@H](Cc2ccncc2)NC1=O [SEQ ID NO. 225] (cyclo([4Pal][Trp(7-Cl)][αMeS][Phe(4-COOH)]Y[Sar][Trp(βS-Me,7-OMe)][X1][Nle][4Pal][Pip(4-aza)]W[NMeE][Dap(CONH2)])) | 9.57 | 9.05 | 
5 | CCCC[C@@H]1NC(=O)CSC[C@@H](C(N)=O)NC(=O)[C@H]([C@@H](C)c2c[nH]c3c(OC)cccc23)NC(=O)CN(C)C(=O)[C@H](Cc2ccc(O)cc2)NC(=O)[C@H](Cc2cccc(C(=O)O)c2)NC(=O)[C@](C)(CO)NC(=O)[C@H](Cc2c[nH]c3c(Cl)cccc23)NC(=O)[C@H](Cc2ccncc2)NC(=O)[C@H](CC(N)=O)NC(=O)[C@H](CCC(=O)O)N(C)C(=O)[C@H](Cc2c[nH]c3ccccc23)NC(=O)[C@@H]2CNCCN2C(=O)[C@H](Cc2ccncc2)NC1=O [SEQ ID NO. 249] ({CH2CO}-[Nle][4Pal][Pip(4-aza)]W[NMeE]N[4Pal][Trp(7-Cl)][αMeS][Phe(3-COOH)]Y[Sar][Trp(βS-Me,7-OMe)]C-NH2; thioether N-14) |  | 8.36 | 9.00
6 | CCCC[C@@H]1NC(=O)CSC[C@@H](C(N)=O)NC(=O)[C@H]([C@@H](C)c2c[nH]c3c(C)cccc23)NC(=O)CN(C)C(=O)[C@H](Cc2ccc(O)cc2)NC(=O)[C@H](Cc2ccc(C(=O)O)cc2)NC(=O)[C@](C)(CO)NC(=O)[C@H](Cc2c[nH]c3c(Cl)cccc23)NC(=O)[C@H](Cc2ccncc2)NC(=O)[C@H](CC(N)=O)NC(=O)[C@H](CCC(=O)O)N(C)C(=O)[C@H](Cc2c[nH]c3ccccc23)NC(=O)[C@@H]2CCCCN2C(=O)[C@H](Cc2ccncc2)NC1=O [SEQ ID NO. 208] ({CH2CO}-[Nle][4Pal][Pip]W[NMeE]N[4Pal][Trp(7-Cl)][αMeS][Phe(4-COOH)]Y[Sar][X56]C-NH2; thioether N-14) |  | 8.40 | 8.88
